In patent publication US10335417B2, “Thiazideamide derivative and use thereof” (Institute of Pharmacology and Toxicology Academy of …, priority 2015, dated 2019):

Columns and labels:
[1] = tested on: chick embryo dorsal root ganglion; test: in vitro serum-free culture model of chick embryonic dorsal root ganglion: neurite growth score with NGF; assay type: cell-based; conditions: for Average score (growth of neurites of chick embryo dorsal root ganglion): 48 h, score 0-3, average of five ganglions, control 0.33
Experimental: The neurotrophic activity of the compounds according to the invention can be embodied in multiple in vitro biological models, such as in vitro serum-free culture model of chick embryonic dorsal root ganglion.
Experimental method: in a sterile environment, chick embryo, which had been incubated for 8 d, had the spinal and bilateral ganglion exposed under anatomical lens. Dorsal root ganglions were picked one by one using sharp forceps, and seeded in culture bottles spread with rat tail collagen, at a density of 5-6 ganglions per bottle, and two bottles for each dose. After attachment culture in a 37° C., 5% CO2 incubator for 1 h, serum-free medium DMEM containing nerve growth factor (NGF) (0.15 ng/mL), and the compound according to the invention were added. In the control group, only the medium and the same dose of NGF were added. After culture in the incubator for 48 h, the growth of neurite around dorsal root ganglion was observed under inverted phase contrast microscope, which was scored depending on the length and density of neurite.
Evaluation criteria: 0: no neurite; 1: rare long neurite; 2: relatively long or dense neurite; 3: long and dense neurite.

in vitro = conditions: dog, MDCK-MDR1
From the text: (§1) MDCK-MDR1 cells were monolayer cells which highly express P-gp transporter after transfection of MDCK (Madin-Darby canine kidney epithelial cell) with MDR1 gene. Due to its density and high expression of efflux protein, the monolayer has similarity compared to blood-brain barrier (BBB) structure and now can be used as one of models for evaluating the ability of passing through BBB. In the invention, MDCK-MDR1 cells were used to study the membrane permeability of the compounds according to the invention, and to primarily evaluate its ability of passing through BBB.
(§2) The frozen MDCK-MDR1 cells were quickly thawed in a 37° C. water bath. To the resuscitated cells, DMEM medium containing 10% FBS was added, and the cells were cultured in an incubator at 37° C., 5% CO2, and a relative humidity of 90%. The medium was changed every other day. After fusion of the cells growing for 1-2 days, the cells were digested with 0.25% trypsin-EDTA (0.2%) mixed digestion solution at 37° C., and were sub-cultured at a certain ratio. The cells for use in experiment were those passaged for 40-60 generations.
(§3) When the cell fusion degree reached 80%, the cells were digested and then suspended in complete medium, and seeded to Millicell plate at 1×10^6 cells·mL^−1. The medium was changed every other day, and 1 week later, the medium was changed every day. After culturing for 5 days, the resistance value reached a constant value (>200 Ω·cm^2), and the cells could be used in the transport experiment.
(§4) After washing with 37° C. HBSS twice, the cells were incubated in a 37° C. culture incubator, wherein Rho-123 was added to the upper wells, and HBSS was added to the bottom wells. The incubation was carried out in a constant temperature shaker, and the solutions from the bottom wells were collected at each time point (0 min, 30 min, 90 min, 120 min), and stored at −20° C. for further use. The amount of Rho-123 permeated to the bottom well was determined by fluorospectrophotometer, wherein the emission wavelength was […], and the excitation wavelength was 530 nm.
(§5) The permeability from cavity-surface to basal surface: drug-containing HBSS 0.35 mL was add to Apical (AP), and blank HBSS 1.2 mL was added to Basolateral (BL). The Millicell was placed at 37° C. in a shaker under shaking at 50 r·min^−1, 50 μL sample was collected from the bottom well at 0, 30, 90, 120 min, respectively, and the same volume of blank HBSS was supplemented. 3 wells were set for each concentration, and to the sample, an internal standard solution (50 μL) and ethyl acetate (350 μL) were added precisely. The mixture was mixed homogeneously under shaking, and centrifuged at 12000 rmp for 5 min. The supernatant (300 μL) was volatilized to dryness, and re-dissolved in 50 μL acetonitrile. The 10 μL resultant solution was used for determination.
(§6) The permeability from basal surface to cavity surface: the drug is added to Basolateral (BL), and blank HBSS was added to Apical (AP), and the other steps were the same as those of the experiment for determining the permeability from cavity-surface to basal surface.
(§7) The apparent permeability coefficient (Papp) of a drug reflects the ability of the drug to pass through cell monolayer and the drug absorption rate and extent. It can be calculated in accordance with the following equation: […]
(§8) wherein, Q represents the amount of drug permeated in the t period, A represents cell surface area, and represents the area (0.6 cm^2) of supporting film in this model, and C0 represents an initial concentration. The unit of Papp is expressed as cm·s^−1.
(§9) By measurement using LC/MS, the concentration of each sample was quantitated using its standard curve (50 nM-10000 nM).

MDCK-MDR1 cells = test: in vitro; conditions: for Papp value increased compared to Compound 6: dog, MDCK-MDR1, 120 min; for Papp (apparent permeability coefficient): MDCK-MDR1
From the text: as §1, §2, §3, §4, §5, §6, §7, §8, §9

[2] = tested on: BCAO-LBP mice (incomplete global cerebral ischemia); test: mouse BCAO-LBP model of incomplete global cerebral ischemia: cerebral MDA content and neurological function score; assay type: in vivo, Kunmin mice; conditions: for Neurologic deficit score / MDA content: 30 mg/kg i.g. once/d for 3 d, x ± SEM; for Neurologic deficit score: behaviour within 6 h after ligation, model group 3.92, sham 0.00; for neurologic deficit score decreased compared to the group administered with Compound 6: 30 mg/kg i.g., BCAO-LBP mice; for MDA content: whole cerebrum, model group 40.94, sham 33.15
From the text: In the Example, Kunmin mice were used as experimental subjects, intragastric (i.g.) administration was used, mouse BCAO-LBP (bilateral carotid artery occlusion with low blood pressure) model was used, and by determining neurological function score and the cerebral malondialdehyde (MDA) content in mice, the compounds were investigated for their protective effects on incomplete global cerebral ischemia in mice when administered prophylactically.
2.1.2 Preparation of a drug for intragastric administration: the compound was prepared to a 1.5 mg/ml solution using 0.7% CMC-Na solution.
28 mice, which had adapted to the laboratory environment for 1 week, were evenly grouped depending on body weight. The mice were intragastrically administered with 0.7% CMC-Na or one of the compounds, once/d, for 3 d. The groups were as followed:
Administration group: 12 mice, intragastrically administered at a dose of 0.2 ml/10 g, i.e., the dose of the compound was 30 mg/kg.
2.3.1 Mouse bilateral carotid artery ligation: 1 h after the last administration, the mice were subjected to orbital bloodletting to reduce blood pressure (which was about 30% of the total blood volume of the mice), and then fixed in supine position on the operating table, and cut in the middle of neck. Carotid artery was subjected to blunt dissection, and 2 lines were used in ligation for each side. The time counting started after the ligation with the third line, the carotid artery was cut off between the two lines, and the incision was sewn up. In the Sham-operated group, the carotid artery was only separated without ligation. After the operation, the mice were unfixed quickly, and the mice were observed and recorded for the behaviors within 6 h (scoring depending on the following table using blind method) and the death time. The brains were taken quickly after the mice died, the cerebellums were removed, and the MDA content in the whole cerebrum was determined by thiobarbituric acid (TBA).
The cerebra of mice were taken and weighed, and were prepared into 15% brain homogenate using N.S. 1.2 ml brain homogenate was placed in a 37° C. water bath for 1 h (shaking once every 10 min) and then taken out. 20% trichloroacetic acid 0.6 ml was added, and the mixture was mixed well, and was on standing for 10 min. After centrifugation at 2000 rpm for 10 min, to 1.2 ml supernatant, 0.67% TBA 0.6 ml was added. The mixture was placed in a boiling water bath for 10 min, and was taken out for cooling, and the OD value at a wavelength of 532 nm was determined.
The experimental data was expressed as x±SEM; SPSS 13.0 statistic software was used. Homogeneity or heterogeneity of variance was determined by one-factor analysis of variance. In the case of homogeneity of variance, LSD test was used; in the case of heterogeneity of variance, Dunnett's T3 test was used. Significant difference among different groups was compared, and P<0.05 indicated statistical significance.

[3] = compound 100 pM + NGF 0.15 ng/mL

| Compound | Average score (growth of neurites of chick embryo dorsal root ganglion) ([1]; compound 1 pM + NGF 0.15 ng/mL) | Average score (growth of neurites of chick embryo dorsal root ganglion) [1, 3] | Papp at 120 min (in vitro) | Papp value increased compared to Compound 6 (MDCK-MDR1 cells) | Neurologic deficit score [2] | neurologic deficit score decreased compared to the group administered with Compound 6 [2] | MDA content [2] | Papp (apparent permeability coefficient) (MDCK-MDR1 cells) | neurotrophic activity increased compared to Compound 6 ([1]; dose 1 pM) | neurotrophic activity increased compared to Compound 6 ([1]; dose 100 pM) |
| --- | --- | --- | --- | --- | --- | --- | --- | --- | --- | --- |
| Cc1ccc(S(=O)(=O)N2CCSC[C@H]2C(=O)N[C@@H](Cc2ccccc2)C(=O)OC(C)C)cc1 [Compound 23, (S)-isopropyl-3-phenyl-2((R)-(4-methylphenyl)sulfonyltetrahydro-1,4-thiazin-3-aminoformyl)propionate] | 2.12 | 3.21 | 44.2 ×10⁻⁶ cm/s | above 7% | 1.81 ± 0.26 | ~13% | 31.87 ± 0.95 nmol/g | – | – | – |
| Cc1ccc(S(=O)(=O)N2CCSC[C@H]2C(=O)N[C@H](CC(C)C)C(=O)OC(C)C)cc1 [Compound 6, (3R)-4-[(4-methylbenzenesulfonyl)]-1,4-thiazin-3-carbonyl-D-leucine isopropyl ester, reference compound] | 1.68 | 2.55 | – | – | 2.08 ± 0.40 | – | 32.87 ± 0.95 nmol/g | 39.5 ×10⁻⁶ cm/s | – | – |
| CCc1ccc(S(=O)(=O)N2CCSC[C@H]2C(=O)NC(CC(C)C)C(=O)OC(C)C)cc1 (stereo in doubt) [Compound 28, (3R)-4-[(4-ethylbenzenesulfonyl)]tetrahydro-1,4-thiazin-3-carbonyl-L-leucine isopropyl ester] | 2.00 | 2.96 | 45.8 ×10⁻⁶ cm/s | above 7% | 1.87 ± 0.31 | ~10% | 30.90 ± 1.65 nmol/g | – | 19% | 16% |
| CCOC(=O)[C@@H](NC(=O)[C@@H]1CSCCN1S(=O)(=O)c1ccc(C)cc1)C(C)CC (stereo partly drawn) [Compound 7, (2S,3R)-ethyl-3-methyl-2((R)-(4-methylphenyl)sulfonyltetrahydro-1,4-thiazin-3-aminoformyl)valerate] | 1.46 | 1.95 | 49.8 ×10⁻⁶ cm/s | above 7% | – | – | – | – | – | – |
| CCOC(=O)[C@H](CC(C)C)NC(=O)[C@@H]1CSCCN1S(=O)(=O)c1ccc(C)cc1 [Compound 5, (3R)-4-[(4-methylbenzenesulfonyl)]-1,4-thiazin-3-carbonyl-L-leucine ethyl ester, reference compound] | 0.65 | 1.55 | – | – | 3.62 ± 0.31 | – | 36.09 ± 1.85 nmol/g | 8.38 ×10⁻⁶ cm/s | – | – |
